Results on 1 compound are retold here after BindingDB's records for doi:10.1016/j.bmcl.2006.09.059 (Seoul National University, 2006).

For this assay, the target named is Transient receptor potential cation channel subfamily V member 1 (Rattus norvegicus, UniProt O35433). As to the kind of experiment: Agonist activity at rat TRPV1 expressed in CHO cells assessed as maximal calcium uptake.

Each structure is given as a SMILES string. pEC50: −log10 of the molar value.

Transient receptor potential cation channel subfamily V member 1, sequence (O35433 whole entry): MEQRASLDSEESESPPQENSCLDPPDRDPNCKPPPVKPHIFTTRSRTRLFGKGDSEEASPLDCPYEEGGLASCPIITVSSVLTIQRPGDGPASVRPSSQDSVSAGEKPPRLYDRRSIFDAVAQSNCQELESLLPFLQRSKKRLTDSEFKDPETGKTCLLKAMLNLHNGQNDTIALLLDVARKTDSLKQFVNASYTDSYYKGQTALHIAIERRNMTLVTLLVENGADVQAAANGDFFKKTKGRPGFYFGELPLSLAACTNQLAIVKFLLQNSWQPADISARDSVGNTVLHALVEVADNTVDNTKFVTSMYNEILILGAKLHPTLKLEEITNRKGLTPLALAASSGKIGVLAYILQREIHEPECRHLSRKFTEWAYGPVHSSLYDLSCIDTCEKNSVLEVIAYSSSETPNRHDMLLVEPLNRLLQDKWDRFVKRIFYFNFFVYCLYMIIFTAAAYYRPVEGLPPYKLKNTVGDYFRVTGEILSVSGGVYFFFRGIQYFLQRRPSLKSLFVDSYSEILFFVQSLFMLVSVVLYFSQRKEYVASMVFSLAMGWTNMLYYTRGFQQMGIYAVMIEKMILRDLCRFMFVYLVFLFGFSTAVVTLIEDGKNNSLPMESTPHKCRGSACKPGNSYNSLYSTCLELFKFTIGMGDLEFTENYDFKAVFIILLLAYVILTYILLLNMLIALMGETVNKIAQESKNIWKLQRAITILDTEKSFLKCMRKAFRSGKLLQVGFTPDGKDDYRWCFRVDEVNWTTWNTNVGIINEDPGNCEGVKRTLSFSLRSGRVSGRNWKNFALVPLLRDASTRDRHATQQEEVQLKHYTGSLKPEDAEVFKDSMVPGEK

For orientation: pEC50 means the EC50 on a negative log10 scale, so that one unit is a factor of ten. For the compound `COc1cc(CNC(=S)NC(COC(=O)C(C)(C)C)Cc2ccc(C(C)(C)C)cc2)ccc1O` (stereo unspecified) [2-(3-(4-hydroxy-3-methoxybenzyl)thioureido)-3-(4-tert-butylphenyl)propyl pivalate], the pEC50 was 8.24.
